Data as given in patent EP4772514A1, “MACROCYCLIC COMPOUNDS, PREPARATION METHOD THEREFOR, AND USE THEREOF” (Genfleet Therapeutics (Shanghai) Inc., priority 2023, dated 2025).

Experiments:
Type in all cases: cell-based
NCI-H441 cells = experiment: 3D cell proliferation assay (CellTiter Glo-3D) in NCI-H441 cells; settings: Homo sapiens, NCI-H441, 120 h, NCI-H441, human lung cancer cell strain, KRAS G12V mutation; 3D culture, 2% FBS, 5 days; read-out: H441 AP IC50
Method in brief: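 KRAS^G12V NCI-H441 and KRAS^G12D AsPC-1 cells (800 cells/well each) grown in RPMI-1640 with 2% FBS and treated the day after seeding with 3.16-fold compound dilutions (0.1% DMSO) for 5 days at 37 °C. Viability by CellTiter-Glo 3D luminescence; inhibition versus DMSO and cell-free controls, IC50 from four-parameter fit.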

AsPC-1 cells = experiment: 3D cell proliferation assay (CellTiter Glo-3D) in AsPC-1 cells; settings: ASPC1, 120 h; AsPC-1, human pancreatic cancer cell strain, KRAS G12D mutation; 3D culture, 2% FBS, 5 days; read-out: AsPC-1 AP IC50
Text: MIA PaCa-2 cells were purchased from ATCC, Cat. No. CRL-1420; AsPC-1 cells were purchased from ATCC, Cat. No. CRL-1682; NCI-H441 cells were purchased from ATCC, Cat. No. HTB-174; NCI-H1975 cells were purchased from ATCC, Cat. No. CRL-5908; DMEM medium was purchased from Gibco, Cat. No. 11995-065; RPMI-1640 medium was purchased from Gibco, Cat. No. 11875-093; FBS was purchased from Gibco, Cat. No. 10099-141C; penicillin/streptomycin double-antibiotic solution (PS) was purchased from Gibco, Cat. No. 15140-122; Horse serum was purchased from Gibco, Cat. No. 16050130; trypsin (containing EDTA) was purchased from Gibco, Cat. No. 25200-072; DMSO was purchased from VWRAMRESCO, Cat. No. 0231-500ML; 384-well cell culture plates were purchased from Corning, Cat. No. 3830; white-bottomed, opaque 384-well assay plates were purchased from Corning, Cat. No. 3570; CellTiter Glo-3D kit was purchased from Promega, Cat. No. G9683; cell counter was purchased from CHEMOMETEC, model: NC-200; microplate reader was purchased from PerkinElmer, model: EnVision.
MIA PaCa-2, a human pancreatic cancer cell strain endogenously containing a KRAS^G12Cmutation, was cultured in a complete medium containing DMEM + 10% FBS + 2.5% Horse serum + 1% PS. AsPC-1, a human pancreatic cancer cell strain endogenously containing a KRAS^G12D mutation, was cultured in a complete medium containing RPMI-1640 + 10% FBS + 1% PS. NCI-H441 cells, a human lung cancer cell strain endogenously containing a KRAS^G12V mutation, were cultured in a complete medium containing RPMI-1640 + 10% FBS + 1% PS. NCI-H1975, a KRAS wild-type human lung cancer cell strain whose cell proliferation […], was cultured in a complete medium containing RPMI-1640 + 10% FBS + 1% PS.
The cells were digested with trypsin (containing EDTA), collected in their respective low-serum complete media containing 2% FBS (for MIA Paca-2 cell culture: DMEM + 2% FBS + 0.5% Horse serum + 1% PS), and counted. After the cell density was adjusted as required, MIA PaCa-2 cells (200 cells/well), AsPC-1 cells (800 cells/well), NCI-H441 cells (800 cells/well), or NCI-H1975 cells (400 cells/well) were seeded into a 384-well cell culture plate, with the volume of the medium in each well being 45 µL. The cell culture plate was incubated in an incubator at 37 °C with 5% CO2 overnight. A series of 3.16-fold gradient dilutions of a 1000× compound stock solution were prepared with DMSO, and then diluted 100-fold with the complete medium containing 2% FBS described above to give 10× compound stock solutions. On the day after cell seeding, 5 µL of the 10× compound stock solution was added to each cell culture well. As a result, the final concentration of the compound in the cell culture well became 1×, and the DMSO content in the well was 0.1%. In addition to the compound-treated wells described above, cell-containing DMSO control wells (with 5 µL of the complete medium containing 1% DMSO added to each well) and cell-free medium control wells (containing 50 µL of the complete medium with 2% FBS) were also set. The culture plate was incubated in an incubator at 37 °C with 5% CO2 for another 5 days, and then 30 µL of CellTiter-Glo working solution was added to each well. The mixture was well mixed, incubated for 30 min, left to stand at room temperature for 30 min, and then transferred to a white-bottomed, opaque 384-well assay plate at 40 µL/well. The chemiluminescence values (RLU) were measured using a microplate reader, and the cell proliferation inhibition rate for each well was calculated: IR(%) = (RLUDMSO - RLUcompound)/(RLUDMSO - RLUblank) × 100%, where RLUDMSO is the average RLU signal value from the DMSO control well samples, RLUblank is the average RLU signal value from the medium control well samples, and RLUcompound is the RLU signal value from the compound-treated well samples. […]

p-ERK [1] = experiment: Cell p-ERK assay (HTRF, Advance ERK phospho-T202/Y204 kit) in AsPC-1 cells; settings: ASPC1; AsPC-1, human pancreatic cancer cell strain, KRAS G12D mutation; 3 h compound incubation
Protocol: AsPC-1 cells were purchased from ATCC, Cat. No. CRL-1682; NCI-H441 cells were purchased from ATCC, Cat. No. HTB-174; RPMI-1640 medium was purchased from Gibco, Cat. No. 11875-093; FBS was purchased from Gibco, Cat. No. 10099-141C; penicillin/streptomycin double-antibiotic solution (PS) was purchased from Gibco, Cat. No. 15140-122; trypsin (containing EDTA) was purchased from Gibco, Cat. No. 25200-072; DMSO was purchased from VWRAMRESCO, Cat. No. 0231-500ML; 96-well cell culture plates were purchased from Corning, Cat. No. 3599; white-bottomed, opaque 96-well plates were purchased from Cisbio, Cat. No. 66PL96025; Advance ERK phospho-T202/Y204 kit was purchased from Cisbio, Cat. No. 64AERPEH; cell counter was purchased from CHEMOMETEC, model: NC-200; microplate reader was purchased from PerkinElmer, model: EnVision.
AsPC-1, a human pancreatic cancer cell strain endogenously containing a KRAS^G12D mutation, was cultured in a complete medium containing RPMI-1640 + 10% FBS + 1% PS. NCI-H441, a human non-small cell lung cancer cell strain endogenously containing a KRAS^G12V mutation, was cultured in a complete medium containing RPMI-1640 + 10% FBS + 1% PS.
The cells were digested with trypsin (containing EDTA), collected in their corresponding complete media, and counted. The density of the cell suspensions was adjusted with their corresponding complete media, and AsPC-1 cells (10000 cells/well) or NCI-H441 cells (20000 cells/well) were seeded into a 96-well cell culture plate, with the volume of the medium in each well being 80 µL. The cell culture plate was incubated in an incubator at 37 °C with 5% CO2 overnight. A series of 3.16-fold gradient dilutions of a 1000× compound stock solution were prepared with DMSO, and then diluted 200-fold with the complete medium described above to give 5× compound stock solutions. On the day after cell seeding, 20 µL of the 5× compound stock solution was added to each cell culture well. As a result, the final concentration of the compound in the cell culture well became 1×, and the DMSO content in the well was 0.1%. In addition to the compound-treated wells described above, cell-containing DMSO control wells were also set. A complete medium containing 0.5% DMSO was added at 20 µL/well. After the mixture was well mixed, the culture plate was incubated in the incubator at 37 °C with 5% CO2 for another 3 h. The medium was then removed from the culture wells, and 50 µL of cell lysis buffer (from Advance ERK phospho-T202/Y204 kit) was added to each well. The mixture was well mixed, incubated for 30 min, and then transferred to a white-bottomed, opaque 96-well assay plate at 16 µL/well, and separately, 16 µL of cell lysis buffer was added to additional wells (serving as blank wells) in the assay plate. After the transfer was completed, 4 µL of p-ERK HTRF antibody mixture (from Advance ERK phospho-T202/Y204 kit) was added to each well of the assay plate, followed by a 4-hour incubation. The HTRF signal values (RLU) were then measured using a microplate reader, and the inhibition rate of the compound against p-ERK levels was calculated as follows: IR(%) = (RLUDMSO - RLUcompound)/(RLUDMSO - RLUblank) × 100%, where RLUDMSO is the average HTRF signal value from the DMSO control well samples, RLU is the average HTRF signal value from the blank well samples, and RLUcompound is the HTRF signal value from the compound-treated well samples. Using an XLfit software, the IR(%) values were plotted against the logarithm of the compound concentrations, and the dose-response curves were fitted using the four-parameter method to calculate the IC50 values.

p-ERK [2] = experiment: Cell p-ERK assay (HTRF, Advance ERK phospho-T202/Y204 kit) in NCI-H441 cells; settings: Homo sapiens, NCI-H441, 3 h, NCI-H441, human non-small cell lung cancer cell strain, KRAS G12V mutation; 3 h compound incubation
Method in brief: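 AsPC-1 (KRAS G12D) or NCI-H441 (KRAS G12V) cells seeded overnight, then treated 3 h at 37 °C with compound (0.1% DMSO) in RPMI-1640/10% FBS. Lysates assayed for ERK phospho-T202/Y204 by HTRF; inhibition vs DMSO and blank wells, IC50 from four-parameter fit.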

| SMILES | IC50 (NCI-H441 cells) [nM] | IC50 (AsPC-1 cells) [nM] | IC50 (p-ERK [1]) [nM] | IC50 (p-ERK [2]) [nM] |
| --- | --- | --- | --- | --- |
| CCn1cc2c(c1-c1cc(C#CCN3CCC(C#N)CC3)cnc1[C@H](C)OC)CC(C)(C)COC(=O)[C@@H]1CCCN(N1)C(=O)[C@@H](NC(=O)[C@H]1[C@H](C)[C@@H]1C)Cc1nc(cs1)/C=C/2 (atropisomer, axis not shown; (Ra)) [Compound Z49, (1r,2R,3S)-N-((4 ^2Z,8^3S,2E,6S)-(Ra)-1^5-(5-(3-(4-cyanopiperidin-1-yl)prop-1-yn-1-yl)-2-((S)-1-methoxyethyl)pyridin-3-yl)-1^1-ethyl-12,12-dimethyl-7,9-dioxo-8^1,8^2,8^3,8^4,8^5,8^6-hexahydro-1^1H-10-oxa-4(4,2)-thiazola-8(1,3)-pyridazina-1(3,4)-pyrrolacyclotridecaphan-2-en-6-yl)-2,3-dimethylcyclopropane-1-carboxamide] | 0.14 | 0.08 | 0.13 | 0.17 |
| CCn1cc2c(c1-c1cc(C#CCN3CCC(C#N)CC3)cnc1[C@H](C)OC)CC(C)(C)COC(=O)[C@@H]1CCCN(N1)C(=O)[C@@H](NC(=O)[C@H]1[C@@H]3COC[C@@H]31)Cc1nc(cs1)/C=C/2 (atropisomer, axis not shown; (Ra)) [Compound Z50, (1R,5S,6r)-N-((4^2Z,8^3S,2E,6S)-(Ra)-1^5-(5-(3-(4-cyanopiperidin-1-yl)prop-1-yn-1-yl)-2-((S)-1-methoxyethyl)pyridin-3-yl)-1^1-ethyl-12,12-dimethyl-7,9-dioxo-8^1,8^2,8^3,8^4,8^5,8^6-hexahydro-1^1H-10-oxa-4(4,2)-thiazola-8(1,3)-pyridazina-1(3,4)-pyrrolacyclotridecaphan-2-en-6-yl)-3-oxabicyclo[3.1.0]hexane-6-carboxamide] | 0.14 | 0.19 | 0.11 | 0.29 |
| CO[C@@H](C)c1ncc(C#CCN2CCC(C#N)(CN)CC2)cc1-c1c2c(nn1C(C)C)/C=C/c1csc(n1)C[C@H](NC(=O)[C@H]1[C@H](C)[C@@H]1C)C(=O)N1CCC[C@H](N1)C(=O)OCC(C)(C)C2 (atropisomer, axis not shown; (Ra)) [Compound Z62] | 4.56 | 5.12 | 4.9 | 3.5 |
| CCn1cc2c(c1-c1cc(C#CCN3CCC(C#N)(CN)CC3)cnc1[C@H](C)OC)CC(C)(C)COC(=O)[C@@H]1CCCN(N1)C(=O)[C@@H](NC(=O)[C@H]1[C@H](C)[C@@H]1C)Cc1nc(cs1)/C=C/2 (atropisomer, axis not shown; (Ra)) [Compound Z65] | 0.17 | 0.1 | 0.14 | 0.58 |
| CCn1cc2c(c1-c1cc(C#CCN3CCC(C#N)(CN)CC3)cnc1[C@H](C)OC)CC(C)(C)COC(=O)[C@@H]1CCCN(N1)C(=O)[C@@H](NC(=O)[C@H]1[C@@H]3COC[C@@H]31)Cc1nc(cs1)/C=C/2 (atropisomer, axis not shown; (Ra)) [Compound Z66] | 0.18 | 0.24 | 0.16 | 0.38 |
| CCn1cc2c(c1-c1cc(C#CCN3CCCOCC3)cnc1[C@H](C)OC)CC(C)(C)COC(=O)[C@@H]1CCCN(N1)C(=O)[C@@H](NC(=O)[C@H]1[C@H](C)[C@@H]1C)Cc1nc(cs1)/C=C/2 (atropisomer, axis not shown; (Ra)) [Compound Z69, (1r,2R,3S)-N-((4^2Z,8^3S,2E,6S)-(Ra)-1^5-(5-(3-(1,4-oxazepan-4-yl)prop-1-yn-1-yl)-2-((S)-1-methoxyethyl)pyridin-3-yl)-1^1-ethyl-12,12-dimethyl-7,9-dioxo-8^1,8^2,8^3,8^4,8^5,8^6-hexahydro-1^1H-10-oxa-4(4,2)-thiazola-8(1,3)-pyridazina-1(3,4)-pyrrolacyclotridecaphan-2-en-6-yl)-2,3-dimethylcyclopropane-1-carboxamide] | 0.58 | 0.67 | 1.54 | 0.9 |
